Entries after “also recorded” stand apart in the source; their conditions may differ.
Legend:
Assay type in all cases: in vivo, mouse
[1] = test system: MCA205 tumors; assay: Flow cytometry of tumor-infiltrating lymphocytes and myeloid cells; conditions: CD11b / Gr-1 flow cytometry
Experimental: On day 16 of the doxorubicin-anti-PD-L1 combination study (e.g., the study outlined in FIG. 8A), MCA205 tumors were harvested in 1×HBSS (Biosera), minced to fine fragments, and incubated with 1 mg/mL Collagenase D and 0.5 mg/ml DNase I (Roche) in a 37° C. shaker for 30 minutes. Enzymatic digestion was ceased by the addition of RPMI media containing 10% FBS and 1% antibiotic/antimycotic solution. The tissue homogenates were then filtered through 40 μm cell strainers. Red blood cells were removed by ACK Lysing buffer (A1049201, Gibco) and single cell suspensions were collected and used to a final concentration 1×10^6 cells per sample. Cells were then incubated with fixable viability dye (eBioscience, 1:1000) for 10 minutes on ice for gating of viable cells. Non-specific antibody binding was blocked following incubation with the rat anti-mouse CD16/CD32 mAb (BD Bioscience) for 20 minutes on ice. […]
Foxp3-AF488 (BD Bioscience) staining was performed following fixation and permeabilization process using the Foxp3/Transcription Factor Staining Buffer Set (00-5523-00, eBioscience). […] Flow cytometry data were obtained using BD FACSLyric flow cytometer and analyzed using BD FACSuite™ Software. […]

[2] = test system: MCA205 tumors; assay: Ultrasound shear wave elastography of tumor stiffness; conditions: 10 mg/kg daily ketotifen, dose that reduced stiffness the most
Experimental: (§1) The mechanotherapeutic potential of ketotifen in reducing matrix stiffness was primarily assessed non-invasively and longitudinally using ultrasound elastography. Briefly, assessment of tumor elastic modulus was […] via shear wave elastography using a Philips EPIQ Elite Ultrasound scanner with an eL18-4 linear array, approved for clinical scanning was performed as described in previous study. Elastic modulus values of the areas of the region of interest (ROI) with the highest shear wave quality were obtained. The elastic modulus value presented is the average within the tumor region. Shear wave imaging of MCA205 tumors was performed prior to ketotifen treatment on day 7, to determine baseline level of tumor stiffness, after three days of treatment (day 11), and on the last day of treatment just before tumor removal (day 15). Ultrasound imaging of K7M2wt tumors was performed on day 24, 28, and 31. The effect of ketotifen on chemo-immunotherapy combination with regards to MCA205 tissue elasticity was assessed on day 7 before the first cycle of doxorubicin+anti-PD-L1 treatment, one day after second cycle (day 11) and two days after the last cycle (day 15). Ultrasound imaging of K7M2wt tumors was performed on day 22 (i.e., four days post daily ketotifen and before first cycle of combination treatment) and upon completion of treatment (day 32).

[3] = test system: K7M2wt tumors; assay: as above; conditions: 10 mg/kg daily ketotifen
Experimental: as §1

[4] = test system: K7M2wt tumors; assay: Hypoxia study, pimonidazole adduct immunofluorescence; conditions: 10 mg/kg ketotifen
Experimental: Mice bearing orthotopic MCA205 or K7M2wt sarcoma tumors were injected (intraperitoneal) with 60 mg/kg of pimonidazole HCl at 2 hours prior to tumor removal. Tumors were removed, washed twice in 1×PBS for 10 minutes and incubated with 4% PFA overnight at 4° C. The fixative was aspirated, and samples were washed twice in 1×PBS for 10 min. Tissue samples were dehydrated in successive ethanol steps and xylene followed by paraffin embedding. Serial sections ([…]) of paraffin-embedded tissues were produced using the microtome (Accu-Cut SRM 200 Rotary Microtome, SAKURA), flattened out into water, and allowed to dry overnight at 37° C. Sections were then deparaffinized and rehydrated as routinely processed for histology. Slides were microwaved in TriSodium Citrate, blocked in serum solution, and incubated with mouse anti-pimonidazole RED 549 conjugate antibody (HP7-100Kit, 1:100) overnight at 4° C. The next day slides were washed, nuclei were stained with DAPI, and tissue sections were mounted. Immunofluorescence images of the slides were taken (FIG. 1A), and hypoxic area fraction across different treatment groups was normalized to DAPI staining.
Immunofluorescence staining for Ki67 and CD8, performed as described above, confirmed the activation status of recruited CD8^+ T cells in osteosarcoma tumors (K7M2wt tumors) (FIGS. 9C-9D). […]

[5] = test system: tumors; assay: Interstitial fluid pressure, wick-in-needle technique
Experimental: Interstitial fluid pressure (IFP) was measured in vivo using the “wick-in-needle” technique after mice were anesthetized with i.p. injection of Avertin and prior to tumor excision. Additional information regarding the wick-in-needle technique is described in Dong et al., Involvement of mast cell chymase in burn wound healing in hamsters 2013; 5:643-7 and Shankaran et al. IFNγ and lymphocytes prevent primary tumour development and shape tumour immunogenicity 2001; 410:1107-11, the contents of which are incorporated herein by reference in their entirety.

CN1CCC(=C2c3ccccc3CC(=O)c3sccc32)CC1 [ketotifen]
recruitment of immunosuppressive cell populations (MDSCs) [1]: reducing the recruitment of immunosuppressive cell populations; also recorded: decreasing the polarization of immature myeloid cell population into MDSCs
Young's modulus (tissue stiffness) [2]: 20 kPa
tissue stiffness (Young's modulus) [3]: similarly benefited
pimonidazole positive fraction (hypoxia) [4]: significantly reduced; also recorded: alleviated hypoxia
interstitial fluid pressure (IFP) ([5]; 10 mg/kg dose compared with the other doses): greatest effect
interstitial fluid pressure (IFP) ([5]; all doses of ketotifen, daily for 7 days): reduces; also recorded: reduction in IFP levels
